In patent US9308182B2 (TEVA PHARMACEUTICAL INDUSTRIES, LTD., priority 2012, dated 2016):
Where two headings read alike, the source gives them in different places.

Experiments:
[1] = AZILECT Product Label, May 2006; cited from earlier work
[2] = target: MAO-A (Rattus norvegicus, UniProt P21396); assay: in vivo; conditions: for MAO-A activity, brain / MAO-A activity, intestine / MAO-A activity, liver: two weeks; for MAO-A inhibition in the intestine: three lowest doses 0.02-0.1 mg/kg/day (salt); for inhibition at 0.02 mg/kg/day / inhibition at 0.05 mg/kg/day / inhibition at 0.1 mg/kg/day / inhibition at 0.2 mg/kg/day / inhibition at 0.4 mg/kg/day / inhibition at 0.8 mg/kg/day: rat
MAO-A, sequence (P21396 whole entry, the tested form may be a part): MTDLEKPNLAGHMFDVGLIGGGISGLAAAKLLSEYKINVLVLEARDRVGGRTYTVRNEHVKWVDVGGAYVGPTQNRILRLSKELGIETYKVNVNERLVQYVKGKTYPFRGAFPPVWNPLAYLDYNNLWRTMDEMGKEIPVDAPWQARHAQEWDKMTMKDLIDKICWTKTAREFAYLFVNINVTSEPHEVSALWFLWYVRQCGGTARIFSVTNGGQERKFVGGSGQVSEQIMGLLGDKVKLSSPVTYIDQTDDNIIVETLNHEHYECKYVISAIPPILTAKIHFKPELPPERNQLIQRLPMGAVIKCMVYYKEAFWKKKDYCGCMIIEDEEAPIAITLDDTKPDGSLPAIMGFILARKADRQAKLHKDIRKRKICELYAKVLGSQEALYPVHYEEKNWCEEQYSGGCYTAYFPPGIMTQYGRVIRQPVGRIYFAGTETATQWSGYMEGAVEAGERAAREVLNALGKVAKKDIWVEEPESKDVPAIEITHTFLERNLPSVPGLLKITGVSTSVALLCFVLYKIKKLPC
From the text: ALZET® osmotic minipumps are described in Perkins L, Peer C, and Murphy-Hackley P. “Chapter 21: The use of mini-osmotic pumps in continuous infusion studies” in Handbook of Pre-Clinical Continuous Intravenous Infusion, (Smith & Healing, eds., Taylor and Francis, 2000), the contents of which are incorporated herein by reference.
The osmotic minipumps were inserted subcutaneously with a single surgical procedure: after clipping the fur from the dorsal area and cleaning the skin with antiseptic skin preparation, about 1 cm long incision was made on the dorsum of the animal, midway between both scappulae. The pump was placed along the axis of the body to one side of the backbone. The incision was positioned about 1-2 cm caudal to the estimated caudal end of the minipump when it is in place.
After two weeks of treatment the animals were sacrificed. From each rat, brain (half) and a part of liver were dissected and frozen. The intestine was excised about ½ cm below the stomach about 1-2 cm long, washed with sucrose 0.32 Molar and frozen at −70° C.
Tissue homogenates were pre incubated (37° C.) in the presence of clorgyline or deprenyl to inhibit the activity of MAO-A or MAO-B respectively. For MAO-B determination, samples were incubated for 20 minutes with C^14 PEA 10 μM and for MAO-A determination samples were incubated 30 minutes with C^14 −5HT 100 μM as substrate Termination of the reaction was done by acidification. The labeled metabolites were extracted into toluene:ethyl acetate, and counted in a β counter.

[3] = po, read-out: Percent of MAO-A inhibition, brain
[4] = po, read-out: Percent of MAO-A inhibition, intestine
[5] = po, read-out: Percent of MAO-A inhibition, liver
[6] = sc, read-out: Percent of MAO-A inhibition, brain
[7] = sc, read-out: Percent of MAO-A inhibition, intestine

dose dependence of MAO-A inhibition ([2]; all tissues (intestine, brain, liver)): Dose Dependent
MAO-A inhibition in the brain, ALZET pumps compared with oral administration ([2]; brain): higher
MAO-A activity, brain ([2]; brain, oral, 0.02 mg/kg/day (salt)): 3441 dpm
MAO-A activity, brain ([2]; brain, oral, 0.05 mg/kg/day (salt)): 3031 dpm
MAO-A activity, brain ([2]; brain, oral, 0.1 mg/kg/day (salt)): 2822 dpm
MAO-A activity, brain ([2]; brain, oral, 0.2 mg/kg/day (salt)): 2319 dpm
MAO-A activity, brain ([2]; brain, oral, 0.4 mg/kg/day (salt)): 1417 dpm
MAO-A activity, brain ([2]; brain, oral, 0.8 mg/kg/day (salt)): 803 dpm
MAO-A activity, brain ([2]; brain, sc ALZET pumps, 0.02 mg/kg/day (salt)): 3479 dpm
MAO-A activity, brain ([2]; brain, sc ALZET pumps, 0.05 mg/kg/day (salt)): 2974 dpm
MAO-A activity, brain ([2]; brain, sc ALZET pumps, 0.1 mg/kg/day (salt)): 2595 dpm
MAO-A activity, brain ([2]; brain, sc ALZET pumps, 0.2 mg/kg/day (salt)): 1613 dpm
MAO-A activity, brain ([2]; brain, sc ALZET pumps, 0.4 mg/kg/day (salt)): 917 dpm
MAO-A activity, brain ([2]; brain, sc ALZET pumps, 0.8 mg/kg/day (salt)): 466 dpm
MAO-A inhibition in the intestine, subcutaneous pumps compared with oral administration ([2]; intestine, 14 days, differences statistically significant): lower
MAO-A activity, intestine ([2]; intestine, oral, 0.02 mg/kg/day (salt)): 2712 dpm
MAO-A activity, intestine ([2]; intestine, oral, 0.05 mg/kg/day (salt)): 2607 dpm
MAO-A activity, intestine ([2]; intestine, oral, 0.1 mg/kg/day (salt)): 2308 dpm
MAO-A activity, intestine ([2]; intestine, oral, 0.2 mg/kg/day (salt)): 1891 dpm
MAO-A activity, intestine ([2]; intestine, oral, 0.4 mg/kg/day (salt)): 1194 dpm
MAO-A activity, intestine ([2]; intestine, oral, 0.8 mg/kg/day (salt)): 785 dpm
MAO-A activity, intestine ([2]; intestine, sc ALZET pumps, 0.02 mg/kg/day (salt)): 3199 dpm
MAO-A activity, intestine ([2]; intestine, sc ALZET pumps, 0.05 mg/kg/day (salt)): 2831 dpm
MAO-A activity, intestine ([2]; intestine, sc ALZET pumps, 0.1 mg/kg/day (salt)): 3029 dpm
MAO-A activity, intestine ([2]; intestine, sc ALZET pumps, 0.2 mg/kg/day (salt)): 2604 dpm
MAO-A activity, intestine ([2]; intestine, sc ALZET pumps, 0.4 mg/kg/day (salt)): 1937 dpm
MAO-A activity, intestine ([2]; intestine, sc ALZET pumps, 0.8 mg/kg/day (salt)): 1708 dpm
MAOA inhibitory values in the intestine ([2]; intestine, sc ALZET pumps, dose from 0.2 to 0.8 mg/kg): < 50%
MAO-A inhibition in the intestine ([2]; intestine, given by pumps): did not inhibit
MAO-A inhibition in the intestine ([2]; intestine, given orally): 26-37%
hepatic MAO-A inhibition, subcutaneous ALZET pumps compared with oral ([2]; liver): higher
MAO-A activity, liver ([2]; liver, oral, 0.02 mg/kg/day (salt)): 2127 dpm
MAO-A activity, liver ([2]; liver, oral, 0.05 mg/kg/day (salt)): 2199 dpm
MAO-A activity, liver ([2]; liver, oral, 0.1 mg/kg/day (salt)): 1963 dpm
MAO-A activity, liver ([2]; liver, oral, 0.2 mg/kg/day (salt)): 1582 dpm
MAO-A activity, liver ([2]; liver, oral, 0.4 mg/kg/day (salt)): 1058 dpm
MAO-A activity, liver ([2]; liver, oral, 0.8 mg/kg/day (salt)): 681 dpm
MAO-A activity, liver ([2]; liver, sc ALZET pumps, 0.02 mg/kg/day (salt)): 2192 dpm
MAO-A activity, liver ([2]; liver, sc ALZET pumps, 0.05 mg/kg/day (salt)): 2185 dpm
MAO-A activity, liver ([2]; liver, sc ALZET pumps, 0.1 mg/kg/day (salt)): 1930 dpm
MAO-A activity, liver ([2]; liver, sc ALZET pumps, 0.2 mg/kg/day (salt)): 646 dpm
MAO-A activity, liver ([2]; liver, sc ALZET pumps, 0.4 mg/kg/day (salt)): 27 + dpm
MAO-A activity, liver ([2]; liver, sc ALZET pumps, 0.8 mg/kg/day (salt)): 4 dpm
inhibition at 0.02 mg/kg/day [2, 3]: 6%
inhibition at 0.05 mg/kg/day [2, 3]: 15%
inhibition at 0.1 mg/kg/day [2, 3]: 23%
inhibition at 0.2 mg/kg/day [2, 3]: 37%
inhibition at 0.4 mg/kg/day [2, 3]: 61%
inhibition at 0.8 mg/kg/day [2, 3]: 78%
inhibition at 0.02 mg/kg/day [2, 4]: 26%
inhibition at 0.1 mg/kg/day [2, 4]: 37%
inhibition at 0.2 mg/kg/day [2, 4]: 48%
inhibition at 0.8 mg/kg/day [2, 4]: 79%
inhibition at 0.02 mg/kg/day [2, 5]: 8%
inhibition at 0.05 mg/kg/day [2, 5]: 5%
inhibition at 0.1 mg/kg/day [2, 5]: 18%
inhibition at 0.2 mg/kg/day [2, 5]: 31%
inhibition at 0.8 mg/kg/day [2, 5]: 70%
inhibition at 0.02 mg/kg/day [2, 6]: 8%
inhibition at 0.05 mg/kg/day [2, 6]: 21%
inhibition at 0.1 mg/kg/day [2, 6]: 31%
inhibition at 0.2 mg/kg/day [2, 6]: 57%
inhibition at 0.4 mg/kg/day [2, 6]: 76%
inhibition at 0.8 mg/kg/day [2, 6]: 88%
inhibition at 0.02 mg/kg/day [2, 7]: -8%
inhibition at 0.05 mg/kg/day [2, 7]: 1%
inhibition at 0.1 mg/kg/day [2, 7]: -3%
inhibition at 0.2 mg/kg/day [2, 7]: 12%
SMILES: C#CCN[C@@H]1CCc2ccccc21 [rasagiline, R(+)-N-propargyl-l-aminoindan]
absolute bioavailability [1]: about 36%
